From ChEMBL document CHEMBL1136102, “Synthesis and antibacterial activity of oxazolidinone containing sulphonyl group” (2003)
≈ marks a conversion by molar mass, not a printed value.

Assays:
Type in all cases: functional
Streptococcus = test: In vitro antibacterial activity against Streptococcus
Streptococcus pneumoniae = test: In vitro antibacterial activity against Streptococcus pneumoniae
Staphylococcus aureus = test: In vitro antibacterial activity against Staphylococcus aureus
[1] = tested on: Staphylococcus epidermidis; test: In vitro antibacterial activity against Staphylococcus epidermidis
Staphylococcus hominis = test: In vitro antibacterial activity against Staphylococcus hominis

Row | Compound | MIC (Streptococcus) [µg/mL] | MIC (Streptococcus pneumoniae) [µg/mL] | MIC (Staphylococcus aureus) [µg/mL] | MIC [1] [µg/mL] | MIC (Staphylococcus hominis) [µg/mL]
1 | CC(=O)NC[C@H]1CN(c2ccc(N3CCN(S(=O)(=O)c4ccc(C)cc4)CC3)c(F)c2)C(=O)O1 | 128 (≈ 261 µM) | > 128 | 128 (≈ 261 µM) | 4 (≈ 8.15 µM) | 64 (≈ 130 µM)
2 | CC(=O)NC[C@H]1CN(c2ccc(N3CCN(S(=O)(=O)c4cccc([N+](=O)[O-])c4)CC3)c(F)c2)C(=O)O1 | 4 (≈ 7.67 µM) | 1 (≈ 1.92 µM) | 4 (≈ 7.67 µM) | 0.25 (≈ 0.479 µM) | 0.5 (≈ 0.959 µM)
3 | CC(=O)NC[C@H]1CN(c2ccc(N3CCN(S(=O)(=O)c4ccc(N)cc4)CC3)c(F)c2)C(=O)O1 | 16 (≈ 32.6 µM) | 16 (≈ 32.6 µM) | 16 (≈ 32.6 µM) | 0.25 (≈ 0.509 µM) | 0.25 (≈ 0.509 µM)
4 | CC(=O)NC[C@H]1CN(c2ccc(N3CCN(S(=O)(=O)c4cccc(NC(C)=O)c4)CC3)c(F)c2)C(=O)O1 | > 128 | > 128 | > 128 | > 128 | > 128
5 | CC(=O)NC[C@H]1CN(c2ccc(N3CCN(S(=O)(=O)c4cccc(N)c4)CC3)c(F)c2)C(=O)O1 | 1 (≈ 2.03 µM) | 1 (≈ 2.03 µM) | 0.5 (≈ 1.02 µM) | 0.25 (≈ 0.509 µM) | 0.25 (≈ 0.509 µM)
6 | CC(=O)NC[C@H]1CN(c2ccc(N3CCN(S(=O)(=O)c4cccs4)CC3)c(F)c2)C(=O)O1 | 4 (≈ 8.29 µM) | 4 (≈ 8.29 µM) | 16 (≈ 33.2 µM) | 4 (≈ 8.29 µM) | –
7 | CC(=O)NC[C@H]1CN(c2ccc(N3CCN(S(C)(=O)=O)CC3)c(F)c2)C(=O)O1 | 4 (≈ 9.65 µM) | 2 (≈ 4.83 µM) | 4 (≈ 9.65 µM) | 0.5 (≈ 1.21 µM) | 2 (≈ 4.83 µM)
8 | CC(=O)NC[C@H]1CN(c2ccc(N3CCN(S(=O)(=O)c4ccccc4)CC3)c(F)c2)C(=O)O1 | 4 (≈ 8.39 µM) | 2 (≈ 4.2 µM) | 4 (≈ 8.39 µM) | 0.25 (≈ 0.525 µM) | 1 (≈ 2.1 µM)
9 | CC(=O)NC[C@H]1CN(c2ccc(N3CCN(S(=O)(=O)c4ccccc4NC(C)=O)CC3)c(F)c2)C(=O)O1 | > 64 | > 64 | > 64 | > 64 | > 64
10 | CC(=O)NC[C@H]1CN(c2ccc(N3CCN(S(=O)(=O)c4ccc(NC(C)=O)cc4)CC3)c(F)c2)C(=O)O1 | 32 (≈ 60 µM) | 32 (≈ 60 µM) | 32 (≈ 60 µM) | 1 (≈ 1.87 µM) | 4 (≈ 7.5 µM)
11 | CC(=O)NC[C@H]1CN(c2ccc(N3CCN(S(=O)(=O)c4ccc(Br)cc4)CC3)c(F)c2)C(=O)O1 | > 128 | > 128 | > 128 | 128 (≈ 230 µM) | > 128
12 | CC(=O)NC[C@H]1CN(c2ccc(N3CCN(S(=O)(=O)c4ccccc4[N+](=O)[O-])CC3)c(F)c2)C(=O)O1 | 8 (≈ 15.3 µM) | 8 (≈ 15.3 µM) | 8 (≈ 15.3 µM) | 4 (≈ 7.67 µM) | –
13 | COc1ccc(S(=O)(=O)N2CCN(c3ccc(N4C[C@H](CNC(C)=O)OC4=O)cc3F)CC2)cc1 | 16 (≈ 31.6 µM) | 8 (≈ 15.8 µM) | 16 (≈ 31.6 µM) | 0.5 (≈ 0.987 µM) | 2 (≈ 3.95 µM)
14 | CC(=O)NC[C@H]1CN(c2ccc(N3CCN(S(=O)(=O)c4ccccc4N)CC3)c(F)c2)C(=O)O1 | 2 (≈ 4.07 µM) | 2 (≈ 4.07 µM) | 8 (≈ 16.3 µM) | 4 (≈ 8.14 µM) | –
15 | CC(=O)NC[C@H]1CN(c2ccc(N3CCOCC3)c(F)c2)C(=O)O1 [LINEZOLID] | 2 (≈ 5.93 µM) | – | – | 0.5 (≈ 1.48 µM) | 1 (≈ 2.96 µM)
16 | CC(=O)NC[C@H]1CN(c2ccc(N3CCN(S(=O)(=O)c4ccc([N+](=O)[O-])cc4)CC3)c(F)c2)C(=O)O1 | 128 (≈ 245 µM) | 128 (≈ 245 µM) | 128 (≈ 245 µM) | 8 (≈ 15.3 µM) | 32 (≈ 61.4 µM)
